Several values for one entry are separate records, joined by “and”; a condition that tells them apart may be missing. Equal entries are not always repeated. Where two headings read alike, the source gives them in different places.
Tests used:
Trypsin [1] = assay: Trypsin inhibition; type: biochemical; details: Table 4h, Trypsin vs AmpC
Trypsin [2] = target: T1, Trypsin (UniProt P00760); assay: Trypsin inhibition; type: biochemical; details: for Percentage activity with 100 μM inhibitor: Table 4b; for Percentage inhibition with 100 μM inhibitor: Table 4c; for potency estimated from few doses: read-out: IC50 (Estimated from single concentration measurement), Table 4e
T1 construct: IC50 (Estimated from single concentration measurement); Ki
T1 sequence (P00760 1-246): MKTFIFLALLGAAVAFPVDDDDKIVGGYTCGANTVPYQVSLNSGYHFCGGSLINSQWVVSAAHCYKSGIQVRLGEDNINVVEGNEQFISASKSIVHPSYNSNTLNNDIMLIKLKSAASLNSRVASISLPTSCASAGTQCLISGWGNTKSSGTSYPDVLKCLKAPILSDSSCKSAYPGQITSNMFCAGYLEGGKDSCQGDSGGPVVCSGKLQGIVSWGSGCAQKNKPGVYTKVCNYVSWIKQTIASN

CTX-M-9 β-lactamase = CTX-M-9 β-lactamase (Escherichia coli, UniProt Q9L5C8); assay: biochemical; type: biochemical; details: for Selectivity vs AmpC (comparison of IC50 values): Table 4h, CTX-M-9 vs AmpC; for potency estimated from few doses: read-out: IC50 (Estimated from single concentration measurement); for inhibition at 16 µM: read-out: Percentage inhibition with 16 μM inhibitor
Sequence of CTX-M-9 β-lactamase (Q9L5C8 29-291): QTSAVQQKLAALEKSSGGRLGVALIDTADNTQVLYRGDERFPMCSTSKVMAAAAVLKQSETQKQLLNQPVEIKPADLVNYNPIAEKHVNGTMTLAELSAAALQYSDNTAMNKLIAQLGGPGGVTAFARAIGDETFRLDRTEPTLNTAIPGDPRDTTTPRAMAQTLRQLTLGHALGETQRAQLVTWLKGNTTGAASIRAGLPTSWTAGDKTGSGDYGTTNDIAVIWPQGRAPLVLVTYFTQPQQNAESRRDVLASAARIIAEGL
Protocol: Reactions were initiated by the addition of 0.3 nM enzyme and monitored at 405 nm.
(§1) To assess the selectivity of the new molecules we determined Ki values against three common serine proteases, Trypsin, Elastase and α-Chymotrypsin, as well as that of a class A β-lactamase, CTX-M-9 (Table 10) (Pouvreau L, et al. (1998), FEBS Lett 423:167-172; Del Mar E G, et al. (1980), Biochemistry 19:468-472; Rodriguez-Martinez J A, et al. (2009), Biotechnol Lett 31:883-887; Chen Y, et al. (2005), J Mol Biol 348:349-362).

AmpC β-lactamase [3] = target: T2, AmpC β-lactamase (Escherichia coli, UniProt P00811); assay: biochemical; type: biochemical
T2 construct: made in house
T2 sequence (P00811 20-377): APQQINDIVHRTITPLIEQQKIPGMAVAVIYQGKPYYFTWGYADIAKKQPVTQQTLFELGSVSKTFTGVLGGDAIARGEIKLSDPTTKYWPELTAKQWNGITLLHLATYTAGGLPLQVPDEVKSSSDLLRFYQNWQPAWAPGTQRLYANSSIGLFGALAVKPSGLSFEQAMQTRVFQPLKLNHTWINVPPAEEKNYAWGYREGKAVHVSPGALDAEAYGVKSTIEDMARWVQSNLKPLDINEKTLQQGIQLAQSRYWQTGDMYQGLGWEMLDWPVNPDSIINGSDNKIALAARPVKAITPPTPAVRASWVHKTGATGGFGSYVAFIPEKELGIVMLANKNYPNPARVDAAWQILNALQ
Protocol: FIG. 18. Representative IC50 curves. […] IC50 curves were obtained by measuring rates (in duplicates) at different inhibitor concentrations (x-axis) and by determining the residual activity (y-axis, in percentage). IC50 values were determined by non-linear regression and Ki values calculated using GraphPad software assuming competitive inhibition.
Sulfonamidomethaneboronic acids were dissolved in 100% DMSO at a concentration of 100 mM; more diluted stocks were prepared as necessary. […] The enzyme was expressed and purified as described (Usher, K. C. et al., Biochemistry 1998, 37, 16082-16092) and CENTA was purchased from Tydock Pharma.
Kinetic measurements were run at room temperature in 50 mM sodium-cacodylate pH 6.5 in the presence of 0.01% Triton-X to prevent non-specific inhibition via compound aggregation. […] (Kettner, C. A. and Shenvi, A. B., J. Biol. Chem. 1984, 259, 15106-15114) Reactions were performed in 1 mL cuvettes with 60 μM CENTA and initiated by adding 1.2 nM enzyme. […] (Weston, G. S. et al., J. Med. Chem. 1998, 41, 4577-4586) The first 180 sec of each reaction were used to measure initial rates. IC50 values were obtained by fitting binding data to a sigmoidal dose-response equation using GraphPad Prism (GraphPad software, Inc). Ki values were determined by the use of Cheng-Prusoff equation. (Cheng, Y. and Prusoff, W. H., Biochem. Pharmacol. 1973, 22, 3099-3108)

[4] = system: clinical strains resistant to third-generation cephalosporins; assay: MIC distribution of third-generation cephalosporins alone or with compounds over clinical strains; type: cell-based; details: for clinical isolates for which MICs dropped into the susceptible range (MICs≦1 μg/mL): cephalosporins combined with the compound; for MIC 25% percentile / MIC 75% percentile: third-generation cephalosporins in combination with the compound
Protocol: The anti-resistance activity of inhibitors was investigated by the determination of the minimum inhibitory concentrations (MICs) of the β-lactam/inhibitor combination necessary to inhibit the growth of clinically-isolated bacteria resistant to third-generation cephalosporins via expression of class A or class C β-lactamases (Table 6).
Susceptibility testing was performed and interpreted following the guidelines of CLSI. (Clinical and Laboratory Standards Institute, Performance standards for antimicrobial susceptibility testing, 20th Informational Supplement, M100-S20 2010) The compounds were dissolved in 50% DMSO, and dilutions were performed using Muller-Hinton medium. An adequate final concentration was obtained to determine the minimum inhibitory concentrations (MICs). The concentration of DMSO was maintained below 5%. The inhibitors were tested for synergy with the third-generation β-lactams ceftazidime and cefotaxime against several clinical bacteria. The ratio of β-lactams to inhibitors was 1:4. Each value reported reflects the average of three independent experiments. […] The Friedman's test and the Wilcoxon signed rank test were used to compare MIC values. Statistical significance was established at p<0.05.

Elastase = Elastase inhibition; type: biochemical; details: Table 4h, Elastase vs AmpC
Text: as §1

[5] = target: T3, α-chymotrypsin (bovine pancreatic) (Bos taurus, UniProt P00766); assay: α-Chymotrypsin inhibition; type: biochemical; details: for activity at 100 µM: Table 4b, 100 μM inhibitor, read-out: Percentage activity with 100 μM inhibitor; for potency estimated from few doses: Table 4e, read-out: IC50 (Estimated from single concentration measurement); for Ki: Table 10, α-Chymotrypsin; for Selectivity vs AmpC (comparison of IC50 values): Table 4h, Chymotrypsin vs AmpC; for inhibition at 100 µM: read-out: Percentage inhibition with 100 μM inhibitor
T3 construct: purchased Sigma-Aldrich
Protocol: α-Chymotrypsin assays were performed in 50 mM Tris buffer pH 7.5 with 0.01% Triton-X. Inhibitor and 0.001 mg/mL enzyme were incubated at their final concentration for 10 min before the reaction was initiated by the addition of 200 μM N-succinyl-Ala-Ala-Pro-Phe p-nitroanilide and monitored at 410 nm.
as §1

Trypsin [6] = target: T1, Trypsin; assay: Trypsin inhibition; type: biochemical; details: Table 10, Trypsin
Text: as §1

AmpC β-lactamase [7] = target: T2, AmpC β-lactamase; type: biochemical; details: for type of inhibition: Lineweaver-Burk analysis, competition with substrate CENTA; for time dependence of inhibition (incubation effect, off-rate): enzyme incubation and dilution experiments
[8] = Table 8, read-out: Ki vs CTX-M-9
[9] = Ki (from multi- or single concentration measurements), Table 4g

Row | Structure (SMILES) | Percentage activity with 100 μM inhibitor (Trypsin [2]) | Percentage inhibition with 100 μM inhibitor (Trypsin [2]) | potency estimated from few doses (Trypsin [2]) [µM] | IC50 (CTX-M-9 β-lactamase) [µM] | potency estimated from few doses (CTX-M-9 β-lactamase) [µM] | inhibition at 16 µM (CTX-M-9 β-lactamase) [%] | IC50 (AmpC β-lactamase [3]) [µM] | Ki (AmpC β-lactamase [3]; Ki) | Ki (AmpC β-lactamase [3]; [9]) [µM] | Ki (AmpC β-lactamase [3]; Ki Vs AmpC, Table 7) [µM] | Ki (AmpC β-lactamase [3]; Ki vs AmpC, Table 8) [µM] | Ki (AmpC β-lactamase [3]; Ki, Table 5) [µM] | Ki (AmpC β-lactamase [3]; Ki, Table 10, AmpC) [µM] | Ligand efficiency (AmpC β-lactamase [3]; Table 5) | clinical isolates for which MICs dropped into the susceptible range (MICs≦1 μg/mL) [4] [%] | MIC 25% percentile [4] [µg/mL] | MIC 75% percentile [4] [µg/mL] | activity at 100 µM [5] [%] | potency estimated from few doses [5] [µM] | Ki [5] [µM] | other results
1 | O=S(=O)(NCB(O)O)c1ccc(-c2nnn[nH]2)cc1 [CR157, [4-(3-tetrazol-5-yl)benzensulfonylamino]methaneboronic acid] | 95 | 5 | 1900 | 10.5 | 6 | 73 | 0.0062 | 0.0008 to 0.0013 µM | 0.0012 | 0.0012 | 0.0012 | 0.0012 | 0.0012 | 0.63 | 25 | 1.5 | 4.0 | 90 | 900 | 224 | Selectivity vs AmpC (comparison of IC50 values) (Trypsin [1]): 306452; Ki (CTX-M-9 β-lactamase; [8]): 2.5 µM; Selectivity vs AmpC (comparison of IC50 values) (CTX-M-9 β-lactamase): 1694; Selectivity vs AmpC (comparison of IC50 values) (Elastase): 31309; Selectivity vs AmpC (comparison of IC50 values) [5]: 145161; inhibition at 100 µM [5]: 10%; Ki (Trypsin [6]): 350 µM; type of inhibition (AmpC β-lactamase [7]): competitive; time dependence of inhibition (incubation effect, off-rate) (AmpC β-lactamase [7]): incubation effect owing to slow off-rates
2 | O=C(O)c1cccc(CS(=O)(=O)NCB(O)O)c1 [CR167, [3-(Carboxyphenyl)methanesulfonylamino]methaneboronic acid] | 95 | 5 | 1900 | 0.125 | 0.162 | 99 | 0.0065 | 0.0008 to 0.0013 µM and 0.0013 µM | 0.0013 | 0.0013 | 0.0013 | 0.0013 | 0.0013 | 0.66 | 75 | 0.5 | 1.5 | 99 | 9900 | 2460 | Selectivity vs AmpC (comparison of IC50 values) (Trypsin [1]): 292308; Selectivity vs AmpC (comparison of IC50 values) (CTX-M-9 β-lactamase): 19; selectivity towards AmpC versus CTX-M-9 β-lactamase (CTX-M-9 β-lactamase; ratio of Ki values): ~30 fold; Ki (CTX-M-9 β-lactamase; read-out: Ki): 0.045 µM; Selectivity vs AmpC (comparison of IC50 values) (Elastase): 22139; Selectivity vs AmpC (comparison of IC50 values) [5]: 1523077; inhibition at 100 µM [5]: 1%; Ki (Trypsin [6]): 350 µM; type of inhibition (AmpC β-lactamase [7]): competitive; time dependence of inhibition (incubation effect, off-rate) (AmpC β-lactamase [7]): incubation effect owing to slow off-rates
3 | O=S(=O)(NCB(O)O)c1ccc(-c2nn[nH]n2)c(Cl)c1 [CR191, [3-chloro-4-(3-tetrazol-5-yl)benzensulfonylamino]methaneboronic acid] | 95 | 5 | 1900 | 7 | 7 | 70 | 0.0016 | 0.003 µM | 0.003 | 0.003 | 0.003 | 0.003 | 0.003 | 0.57 | 25 | 1.0 | 4.0 | 85 | 567 | 141 | Ki (CTX-M-9 β-lactamase; [8]): 2.5 µM; inhibition at 100 µM [5]: 15%; Ki (Trypsin [6]): 350 µM; melting point: 195 to 198 °C (dec.); type of inhibition (AmpC β-lactamase [7]): competitive; time dependence of inhibition (incubation effect, off-rate) (AmpC β-lactamase [7]): slow off-rate
